These compounds were tested on Candida albicans (assay: in vitro antifungal activity (MIC80), Candida albicans). Details: 80% growth inhibition vs negative control, RPMI 1640, read 24 hrs after application, Table 2, read-out: Antifungal Activity (MIC80) Candida albicans.
Format: cell-based
Protocol: The compounds of the present invention were evaluated for inhibitory activity against yeast molds including Candida albicans, Candida glabrata, Candida krusei, Candida tropicalis, Candida parapsilosis, and Cryptococcus neoformans, and filamentous fungi including Aspergillus fumigatus, Trichophyton mentagrophytes (obtained from KCTC (Korean Collection for Type Cultures), and Trichophyton rubrum (obtained from KCCM (Korean Culture Center of Microorganisms). All the strains, but Trichophyton mentagrophytes and Trichophyton rubrum, were purchased from the ATCC (American Type Culture Collection).
Of the strains used in this test, Candida albicans, Candida glabrata, Candida krusei, Candida tropicalis, Candida parapsilosis, Trichophyton mentagrophytes and Trichophyton rubrum were inoculated into sabouraud dextrose agars (Difco, BD-0109), Cryptococcus neoformans into a yeast mold agar (YM agar, Difco, 271210), and Aspergillus fumigatus into a malt extract agar (Difco, 211220), before incubation at 35° C. for two to ten days.
From the agars on which the yeast molds were grown, single colonies were picked up, and each was sufficiently suspended in 5 mL of already prepared, 0.85% sterile saline. After correction of the absorbance to 0.108 at 530 nm, each of the suspensions was diluted to a ratio of 1:50 in an RPMI (Roswell park memorial institute) 1640 medium and then to a ratio of 1:20 to prepare an inoculum having a cell density of from 1.0×10^3 to 5.0×10^3CFU/mL. The cell density was adjusted into […]˜5.0×10^4 CFU/mL for Aspergillus fumigates and 0.4×10^4˜5.0×10^4 CFU/mL for both Trichophyton mentagrophytes and Trichophyton rubrum.
The antifungal agent samples were prepared by diluting the active compounds in an RPMI 1640 medium to a serial density of from 0.0156 to 32 μg/mL. In this context, dimethylsulfoxide (DMSO) was used as an excipient at a final concentration of 1% (v/v). The serial dilutions were aliquoted at a volume of 0.1 mL and applied to 0.1 mL of the aliquots of each inoculum, followed by incubation.
With the naked eyes, an observation was made of all of the yeast molds, but Cryptococcus neoformans 24 hrs after the application, Cryptococcus neoformans and Aspergillus fumigatus 48 hrs after the application, and Trichophyton mentagrophytes and Trichophyton rubrum five days after the application to examine whether the fungi grew or not. In addition, Alamarblue™ as used to determine the concentrations of the compounds of the present invention at which the growth of the microorganisms was 80% inhibited compared to that of the negative control. All experiments were performed in duplicate for each of the test concentration groups.

SMILES	MIC80
C[C@@H](N1CCC(Oc2ccc(C#N)cc2)CC1)[C@](O)(Cn1cncn1)c1ccc(F)cc1F [Example 16, 4-((1-((2R,3R)-3-(2,4-difluorophenyl)-3-hydroxy-4-(1H-1,2,4-triazol-1-yl)butan-2-yl)piperidin-4-yl)oxy)benzonitrile]	≤ 0.015 µg/mL
C[C@@H](NC1CCN(c2ccc(C(F)(F)F)cc2)CC1)[C@](O)(Cn1cncn1)c1ccc(F)cc1F [Example 134, (2R,3R)-2-(2,4-difluorophenyl)-1-(1H-1,2,4-triazol-1-yl)-3-((1-(4-(trifluoromethyl)phenyl)piperidin-4-yl)amino)butan-2-ol]	≤ 0.015 µg/mL
C[C@@H](N1CCC(N(C)c2ccccc2)CC1)[C@](O)(Cn1cncn1)c1ccc(F)cc1F [Example 67, (2R,3R)-2-(2,4-difluorophenyl)-3-(4-(methyl(phenyl)amino)piperidin-1-yl)-1-(1H-1,2,4-triazol-1-yl)butan-2-ol]	≤ 0.015 µg/mL
C[C@@H](N1CCC(Nc2ncc(C(F)(F)F)cc2Cl)CC1)[C@](O)(Cn1cncn1)c1ccc(F)cc1F [Example 60, (2R,3R)-3-(4-((3-chloro-5-(trifluoromethyl)pyridin-2-yl)amino)piperidin-1-yl)-2-(2,4-difluorophenyl)-1-(1H-1,2,4-triazol-1-yl)butan-2-ol]	≤ 0.015 µg/mL
C[C@@H](N(C)C1CCN(c2ccc(C#N)cc2)CC1)[C@](O)(Cn1cncn1)c1ccc(F)cc1F [Example 170, 4-(4-(((2R,3R)-3-(2,4-difluorophenyl)-3-hydroxy-4-(1H-1,2,4-triazol-1-yl)butan-2-yl)(methyl)amino)piperidin-1-yl)benzonitrile]	≤ 0.015 µg/mL
C[C@@H](N1CCC(N(C)c2ccc(F)cc2)CC1)[C@](O)(Cn1cncn1)c1ccc(F)cc1F [Example 70, (2R,3R)-2-(2,4-difluorophenyl)-3-(4-((4-fluorophenyl)(methyl)amino)piperidin-1-yl)-1-(1H-1,2,4-triazol-1-yl)butan-2-ol]	≤ 0.015 µg/mL

Now from value to compound:

MIC80	SMILES
≤ 0.015 µg/mL	C[C@@H](OC1CCN(c2ncccn2)CC1)[C@](O)(Cn1cncn1)c1ccc(F)cc1F [Example 89, (2R,3R)-2-(2,4-difluorophenyl)-3-((1-(pyrimidin-2-yl)piperidin-4-yl)oxy)-1-(1H-1,2,4-triazol-1-yl)butan-2-ol]
≤ 0.015 µg/mL	C[C@@H](OC1CCN(c2ccc(Cl)cc2)CC1)[C@](O)(Cn1cncn1)c1ccc(F)cc1F [Example 96, (2R,3R)-3-((1-(4-chlorophenyl)piperidin-4-yl)oxy)-2-(2,4-difluorophenyl)-1-(1H-1,2,4-triazol-1-yl)butan-2-ol]
≤ 0.015 µg/mL	C[C@@H](OC1CCN(c2ccc(F)cn2)CC1)[C@](O)(Cn1cncn1)c1ccc(F)cc1F [Example 114, (2R,3R)-2-(2,4-difluorophenyl)-3-((1-(5-fluoropyridin-2-yl)piperidin-4-yl)oxy)-1-(1H-1,2,4-triazol-1-yl)butan-2-ol]
≤ 0.015 µg/mL	C[C@@H](OC1CCN(c2ccc(F)cc2)CC1)[C@](O)(Cn1cncn1)c1ccc(F)cc1F [Example 93, (2R,3R)-2-(2,4-difluorophenyl)-3-((1-(4-fluorophenyl)piperidin-4-yl)oxy)-1-(1H-1,2,4-triazol-1-yl)butan-2-ol]
≤ 0.015 µg/mL	Cc1cc(C(F)(F)F)cnc1N1CCC(O[C@H](C)[C@](O)(Cn2cncn2)c2ccc(F)cc2F)CC1 [Example 116, (2R,3R)-2-(2,4-difluorophenyl)-3-((1-(3-methyl-5-(trifluoromethyl)pyridin-2-yl)piperidin-4-yl)oxy)-1-(1H-1,2,4-triazol-1-yl)butan-2-ol]
≤ 0.015 µg/mL	C[C@@H](N1CCC(Oc2ccc(F)cn2)CC1)[C@](O)(Cn1cncn1)c1ccc(F)cc1F [Example 25, (2R,3R)-2-(2,4-difluorophenyl)-3-(4-((5-fluoropyridin-2-yl)oxy)piperidin-1-yl)-1-(1H-1,2,4-triazol-1-yl)butan-2-ol]

— patent US8940768B2, “Antifungal triazole derivatives” (Daewoong Pharmaceutical Co., Ltd., priority 2010, dated 2015)
